These results are taken from ChEMBL document CHEMBL3507680, “University of Dundee, Gates Library screen for HepG2 cell viability”.

This series in a line: Human HepG2 cell viability assay in 384 well format. Format: toxicity, cell-based. On the set-up: dose 125 nL, time 70.5 hour; cytotoxicity at 70.5 h: concentration not given beside the values. As to conditions: HepG2 cells, read-out: Inhibition.
For the compound `CCn1ccnc1CN(C)Cc1nc(CCC(C)C)no1`, the cytotoxicity at 70.5 h was 1.4%. The value for `Cc1ccc2cc(CN(C)Cc3ncc[nH]3)c(=O)[nH]c2c1` was 26.6%.

For `Cc1ccc(C)c(C(=O)N2CCOC(CCN(C)C)C2)c1` (configuration not stated), the cytotoxicity at 70.5 h is -9.2%. The result for `COc1ccc(Cl)cc1NC(=O)CCC1CCCN(Cc2ncon2)C1` (configuration not stated) reads -1.15%; that for `COCc1ncc(CN2CC(Oc3c(C)cccc3C)C2)cn1`, -0.994%. Turning to `COCC1(NC(=O)Nc2nc(C)ns2)CCCC1`, the cytotoxicity at 70.5 h is -13.9%. The result for `COCC(=O)N1C[C@H]2CNC[C@@]2(C(=O)NCc2cccc3[nH]ccc23)C1` reads -3.16%; that for `CSc1nccc(N2C[C@@H]3CC[C@H](C2)N(CC2CCC2)C3=O)n1`, 13%.

On to `COc1ccc(F)c(CN2CCCC(O)(CNCc3ccoc3)C2=O)c1` (configuration not stated), for which the cytotoxicity at 70.5 h is -0.0121%. The value for `CN(CC1(CO)CCC1)C(=O)C1CCC(=O)N(Cc2ccc(Cl)cc2)C1` (configuration not stated) was -1.24%; that for `Cc1ccsc1S(=O)(=O)N1CCc2c(c(C(=O)O)nn2CC2CC2)C1` was -7.3%; that for `O=C1CN(Cc2cc(O)c3cccc(F)c3n2)CCN1C1CCCC1` was 5.5%.

On to `COC(=O)c1ccc(N2CCN(C(=O)c3ccn(C)c(=O)c3)CC2)cc1`, for which the cytotoxicity at 70.5 h came out at 1.93%. `CN(Cc1ccccc1)C1(C(=O)NC(C)(C)CO)Cc2ccccc2C1`: the cytotoxicity at 70.5 h was determined as 2.66%.

For the compound `O=S(=O)(c1ccc(-c2cnco2)cc1)N1CCCC2(CCNCC2)CC1`, the cytotoxicity at 70.5 h was 0.207%.

Regarding `Nc1ccc(C(=O)N2C[C@@H]3CC[C@H](C2)N(Cc2ccccc2)C3)cn1`, the cytotoxicity at 70.5 h is -2.24%.

Regarding `CC(C)N1CCOC(Cc2nn3c(Cc4ccccc4)nnc3s2)C1` (configuration not stated), the cytotoxicity at 70.5 h was -18.2%. The result for `CN(Cc1ccco1)c1ccc(-c2nccn2C)nn1` reads 9.03%; that for `Nc1nccc(N[C@H]2CN(CC(=O)NC3CCCCC3)C[C@@H]2C2CC2)n1`, 5.92%; that for `Cn1cc(Cl)c(C(=O)N2CCCN(C3Cc4ccccc4C3)CC2)n1`, 47.8%. The result for `COc1cc(F)ccc1-c1ncccc1NC(=O)C(C)C` reads -7.03%; that for `CCS(=O)(=O)CCNCc1cc(O)c2cc(C)cc(C)c2n1`, 0.215%; that for `c1cnc(N2CCC(C3CCN(CCCn4cccn4)C3)CC2)nc1` (configuration not stated), 0.616%.

On to `CSCCCN1CCC[C@]2(C(=O)O)CN(c3cnccn3)CC[C@@H]12`, for which the cytotoxicity at 70.5 h turned out to be 26.4%. The value for `CC(O)c1cn(C2CCN(C(=O)C3(C)CCN(C)CC3)CC2)nn1` (configuration not stated) was -10.9%; that for `NC(=O)c1cc(-n2cc(-c3cccc(C(=O)O)c3)cn2)cs1` was -9.85%; that for `COc1cccc(C(=O)N2CCN(C(=O)CCCn3ccnc3)CC2)c1` was 26.1%.

Take `CC(C)n1cnnc1Cn1c(=O)ccc2ccccc21`: the cytotoxicity at 70.5 h is -2.43%. Take `CC(C)OCCCNC(=O)[C@@]12CNC[C@@H]1CN(S(C)(=O)=O)C2`: the cytotoxicity at 70.5 h stood at 13.6%.

As to `CC(=O)NCCCC(=O)N1CCc2[nH]c(-c3ccccc3)nc2C1`, the cytotoxicity at 70.5 h is -5.92%. The value for `NC(=O)N1CCCC(C(=O)NCCc2nc(Cc3ccccc3)no2)C1` (configuration not stated) was -17.9%; that for `COc1ccc(C(=O)N2CCC(Oc3ccccc3)(C(=O)O)CC2)o1` was 2.93%; that for `CN(Cc1ncc[nH]1)C(=O)C(C)(C)NC(=O)c1cccs1` was -3.2%.

With `O=C(Nc1ccc2c(c1)OCCO2)N1CCCN(Cc2cccs2)CC1`, the cytotoxicity at 70.5 h is 0.682%.

Consider `Cc1ccc(CN(C)C(=O)c2n[nH]c(N)c2-c2ccccc2)o1`, for which the cytotoxicity at 70.5 h amounted to 28.7%. As to `CCc1nc(C)sc1CN1CC[C@](O)(CC)[C@H](O)C1`, the cytotoxicity at 70.5 h is -6.34%.

On to `COC(=O)C1Cc2nc[nH]c2CN1Cc1ccc(Sc2ncccn2)o1` (configuration not stated), for which the cytotoxicity at 70.5 h is -0.897%. The result for `COc1ccc(-c2n[nH]cc2CN(C)CCCN2CCOCC2)c(F)c1` reads -3.86%. The value for `CC(C)(NC(=O)C1CCCN(C2CCCC2)C1)c1nnc(N)s1` (configuration not stated) was -3.27%. The result for `CC(=O)N[C@@H]1CN(C(=O)c2csc(C(C)C)n2)C[C@H]1C(C)C` reads -7.11%; that for `Cc1cccc(=O)n1CCCNc1ncnc2c1CCNCC2`, -6.31%; that for `Cc1cnc(N2CCN(C)CC2)nc1-c1ccnn1C`, -13.9%. As to `O=C(NCCN1CCNC1=O)c1cc(-c2ccc(O)cc2)n[nH]1`, the cytotoxicity at 70.5 h was -10.9%. On to `COCc1cn(C2CCN(C(=O)Cc3ccsc3)CC2)nn1`, for which the cytotoxicity at 70.5 h is -9.06%.

In the case of `COc1ncccc1C(=O)N1CCCC1c1nc(-c2ccccc2)no1` (configuration not stated), the cytotoxicity at 70.5 h was -5.54%. The result for `CCCSCC(=O)N1CCC2(CC1)CC(c1ccccc1)CN(C)C2` (configuration not stated) reads 4.01%; that for `c1ccc(CCNc2ncnc3c2CCN(Cc2c[nH]cn2)CC3)cc1`, -0.00958%; that for `Cc1nc(-c2cccc(N3CCC(N[C@@H]4CCOC4)CC3)c2)cs1`, 0.567%.

Consider `COCCc1noc(CN2CCC3(CCCO3)CCC2=O)n1` (configuration not stated), for which the cytotoxicity at 70.5 h came to 15.5%. On to `NC(=O)NCC(=O)N1CCC2(CC1)c1ccccc1CC2O` (configuration not stated), for which the cytotoxicity at 70.5 h is -11.6%. The value for `Cc1noc(-c2ccc(N(C)Cc3cccnc3)nc2)n1` was -15.4%. The value for `CCn1cc(NC(=O)c2cccc(CN3C[C@@H](C)O[C@@H](C)C3)c2)nn1` was 4.2%. On to `CCN1CCN(C(=O)c2cc(-c3ccc(C)o3)n[nH]2)[C@H]2CS(=O)(=O)C[C@H]21`, for which the cytotoxicity at 70.5 h was 42.7%. Turning to `CC(C)(C)c1ncc2c(n1)CN(c1cc(NCCO)nc(N)n1)C2`, the cytotoxicity at 70.5 h was -12%.

As to `COc1ccc(N2CCC(N(C)C(C)C(=O)N(C)C)CC2)cc1` (configuration not stated), the cytotoxicity at 70.5 h was 15.1%. The value for `CNc1cc(-c2nc(CCN3CCCC3=O)no2)ccn1` was 12.1%; that for `COCC1CCCCN1C(=O)c1cc(-c2cccc(OC)c2)n[nH]1` (configuration not stated) was -6.73%. As to `N#Cc1cccc(N2CCC3(CCC(=O)N(CC(N)=O)C3)CC2)n1`, the cytotoxicity at 70.5 h was -8.42%. Take `COc1cccc2c1OCC(C(=O)NCc1c(C)noc1C)C2` (configuration not stated): the cytotoxicity at 70.5 h is -7.18%. Turning to `O[C@]12CCNC[C@H]1CN(c1ccnc3ccccc13)CC2`, the cytotoxicity at 70.5 h was determined as 22.4%.

In the case of `CCn1c(N)nc2cc(C(=O)N3CCC(N4CCCC4)CC3)cnc21`, the cytotoxicity at 70.5 h is -5.99%. The value for `CC(C)c1cc(C(=O)N2CCN(CC3CC3)[C@@H]3CS(=O)(=O)C[C@@H]32)on1` was -0.581%. The result for `Cn1ccnc1CN1CCCC(CO)(CCc2ccccc2)C1` (configuration not stated) reads -8.1%; that for `CCC(NC(=O)c1coc(COc2cccc(F)c2F)n1)C(=O)NC` (configuration not stated), -9.68%. The value for `CC(=O)NCCNc1nccc(CCC(F)(F)F)n1` was -10.3%.

For the compound `CCCC1(CO)CCCN(C(=O)CNC(C)=O)C1` (configuration not stated), the cytotoxicity at 70.5 h is -10.4%. Consider `Cc1nnsc1CN(C)C(=O)CN1CC2(CCNCC2)OC1=O`, for which the cytotoxicity at 70.5 h is -2.76%. `CCSCC(C)NCc1ccccc1-n1ccnc1` (configuration not stated): the cytotoxicity at 70.5 h is -2.53%. The result for `CN1CCC(c2nnc(CN3CCCC3)n2C2CC2)CC1` reads -6.39%; that for `COc1ccc(C)cc1S(=O)(=O)N[C@H]1CN(C(C)=O)C[C@@H]1C1CC1`, -7.75%. The result for `Cc1cc(N2CCC(O)(CN(C)C)C2)c2cc3c(cc2n1)OCO3` (configuration not stated) reads 44.8%. Consider `Cc1ccc(OC2(C(=O)O)CCN(C(=O)CCc3ccco3)CC2)cc1`, for which the cytotoxicity at 70.5 h was -3.25%.

With `COCc1cc(NCCc2ccc(S(N)(=O)=O)cc2)n2nccc2n1`, the cytotoxicity at 70.5 h is -20.7%. `CCc1cnc(C)nc1N1CCN(C(N)=O)CC1`: the cytotoxicity at 70.5 h is -12.6%. The result for `Cc1ccc2nc(CNCCCN3CCCC3=O)cc(O)c2c1` reads 14.6%; that for `Cc1ccc(Cl)c(C)c1NC(=O)N1CCCN(Cc2ccccn2)CC1`, 2.01%.

As to `COc1ccc(Cl)cc1NCCC(=O)NCCNc1cnccn1`, the cytotoxicity at 70.5 h was 3.74%. The result for `CC(C)C(=O)NS(=O)(=O)c1ccc(C#N)cc1C(F)(F)F` reads -2.54%. The value for `COc1cccc2cc(CNCc3ccc(N4CCCC4)nc3)oc12` was 16%. The result for `Cc1noc(C(C)N2CCN(CCN3CCCC3=O)CC2)n1` (configuration not stated) reads -4.25%. With `Cc1ccc(N2CCCN(C(=O)CC3C=CCC3)CC2)nn1` (configuration not stated), the cytotoxicity at 70.5 h is -4.92%. Take `Cc1nc(N2CCN(C(=O)c3ccccc3)CC2)c2cnn(C)c2n1`: the cytotoxicity at 70.5 h was -0.834%.

For the compound `CC(C)C(C(=O)N1CCCN(c2cccnn2)CC1)n1cncn1` (configuration not stated), the cytotoxicity at 70.5 h was 4.13%. The result for `Cc1noc(CN(C)Cc2ccc3c(c2)OCO3)n1` reads 12.4%; that for `CCNC(=O)NC(=O)CNC(C)(C)c1ccc2c(c1)OCCO2`, -5.69%. The value for `CC(C)(NCC(=O)NCC1CC1)c1ccc2c(c1)OCCO2` was 15.5%; that for `Cc1noc(C)c1CN1CCC(N(C)Cc2nnc(C3CC3)n2C)C1` (configuration not stated) was -2.84%. Take `Cc1nnc(C(C)N2CCCN(Cc3ccc(C#N)cc3)CC2)o1` (configuration not stated): the cytotoxicity at 70.5 h was -2.73%.

Take `Cc1cnn(CC2CCCN2Cc2nnc(C)o2)c1` (configuration not stated): the cytotoxicity at 70.5 h is -2.26%. The value for `COc1ccccc1N1CCC(CNS(=O)(=O)c2cccc(C#N)c2)C1` (configuration not stated) was 22.7%; that for `Cc1nnc(C(C)N2CCN(Cc3ccc(C(F)(F)F)cc3)CC2)o1` (configuration not stated) was -1.82%. The value for `c1ccc(Cc2nnc(CN3CCCCC3Cn3cncn3)o2)cc1` (configuration not stated) was 0.659%; that for `CCc1noc(CN(Cc2ccc3c(c2)OCO3)C2CCCC2)n1` was -10.9%.

Regarding `Cc1cccc(-c2noc(CN3CCOCC3C)n2)c1` (configuration not stated), the cytotoxicity at 70.5 h is -5.27%. The result for `CC(C)c1nnc(CN2CCCC(c3cc(C(N)=O)[nH]n3)C2)o1` (configuration not stated) reads 26.9%; that for `CC(C(=O)Nc1ccc(N2CCOCC2)nc1)n1cncn1` (configuration not stated), 23.7%. The value for `COc1c(CNCc2cccc(Cn3ccnc3C)c2)c(C)nn1C` was 13.2%.
